Consider one compound from patent US20260285903A1, “SYNTHESIZED BIOLOGICALLY ACTIVE COMPOUNDS AND METHODS OF MAKING AND USING” (Georgia State University Research Foundation, Inc., priority 2023, published 2026).

One data set deals with SARS-CoV-2. Nature of the data set: SARS-CoV-2 infectivity IF assay (Nucleocapsid staining) in Vero cells. The format is cell-based. To be noted: Vero cells pre-incubated 60 minutes prior to infection, 24 hours, read-out: EC50 antiviral activity against SARS-CoV-2. Here is the method: Cells were seeded in complete media at 8000 cells/100 μl/well in four plates: two for the cytotoxicity assay and two for the infectivity assay. After seeding, the plates were incubated at room temperature for 5 minutes for even distribution, and then at 37° C., 5% CO2 until the following day.
Formulations were prepared at twice the final concentration, and they were diluted to the final desired concentration by an equal volume of virus or media. The initial amounts weighted and the volume in which these were resuspended are recorded.
The prepared stocks (0.5 mg/ml) were diluted in 800 μl of infection media to twice the final drug concentration (200 μM). […]
Residual formaldehyde was quenched with 50 mM Ammonium Chloride, after which cells were permeabilized (0.1% Triton X 100) and stained with an antibody recognizing SARS-CoV2 Nucleocapsid protein (Thermo Fisher MA536271). The primary antibody was detected with an Alexa-488 conjugate secondary antibody (Life Technologies, A21207), and nuclei were stained with Hoechst. Images were acquired on a Cell-Insight CX5 high content platform (Thermo Scientific) using a 4× objective, and percentage infection calculated using CellInsight CX5 software (infected cells/total cells×100).
Normalized percentages of inhibition were calculated using the following formula: […]

Data set [1] relates to human normal colon fibroblast cells (CCD-18Co). The following applies: cited from earlier work.
For a further data set, the system named is NF-κB signaling pathway. Briefly: NF-κB-dependent luciferase activity in NF-κB/293/GFP-Luc cells treated with TNF-α. The format is cell-based. Here is the method:
First, the anti-inflammatory activity of MLY compounds on the NF-κB signaling pathway was examined using the NF-xB/293/GFP-LucTnl cell line (System Biosciences). This cell line is specifically designed for use in quantitatively monitoring (by luciferase intensity) transcriptional activation related to the NF-κB signal transduction pathway in vitro. Treatment of NF-κB/293/GFP-Luc™ cells with 10 ng/ml TNF-α for 18 hours induced strong activation of the NF-κB signal transduction pathway (FIGS. 8A and 8B). […] MLY2 and MLY8 induced a strongest 90% reduction of NF-κB activation the anti-inflammatory effect of MLY 2 and 8 was dose-related (FIG. 9). The dose to reduce the NF-κB activation by 50% was […] for M13, 5 μM for MLY2 and 11 μM for MLY8 (FIG. 9).

The nature of another data set: Kinetic solubility. The format is physicochemical. The text has this:
(§1) The main reason for failure in drug development is poor biopharmaceutical properties, which include low aqueous solubility, chemical instability.
(§2) The biopharmaceutical properties of the synthesized M13 (5-glutathione-6-shogaol) were characterized.

Data set [2] concerns normal lung cells (IMR-90). To be noted: cited from earlier work.
Data set [3] is described as follows: pKa by UV metric at pH 2 to pH 12. The format is physicochemical.
Text: The pKa of a drug influences lipophilicity, solubility, protein binding, and permeability, which in turn directly affects pharmacokinetic (PK) characteristics such as absorption, distribution, metabolism, and excretion.
as §2

The next data set deals with SPHK2 (Homo sapiens, UniProt Q9NRA0). Briefly: Radiometric 33P kinase assay, 17 Lipid Kinase Panel. It is filed as biochemical. To be noted: 20 μM M13, 10 μM ATP; read-out: inhibition of enzyme activity relative to control. The text has this:
It was hypothesized that M13 may target kinases to reduce the inflammatory response. Determination and improvement of the selectivity of a compound by screening a large part of the kinome are of pivotal importance in the discovery of M13 signaling pathways for its anti-inflammatory activities. Radiometric assays were used based on the transfer of ^33P-labeled phosphate from ATP to the kinase substrates found in the 376 Wild Type Kinase Panel and 17 Lipid Kinase Panel (Reaction Biology) and a broad kinase selectivity screen for the inhibitory activity of M13 was performed. Briefly, radiometric assays are based on the transfer of 10 μM ^33P-labelled phosphate from ATP to the kinase substrate. […] FIGS. 2A and 2B show the targeted inhibitor effects of M13 on lipid kinases (FIG. 2A) and protein kinases (FIG. 2B).

For another data set, the system named is Caco-2/BBe cells. Briefly: MTT viability assay, 2D culture. The format is cell-based, human. Here is the method: PBMCs were provided by STEMCELL Technologies (STEMCELL Canada Inc.) and maintained in ImmunoCult™-XF T-cell Expansion Medium (Cat #10981). HIEC-6 cells were maintained in OptiMEM 1 Reduced Serum Medium supplemented with 20 mM HEPES, 10 mM GlutaMAX, 10 ng/mL Epidermal Growth Factor, 4% (v/v) fetal bovine serum (FBS), and 1% penicillin-streptomycin (PS). HCT-116 cells were maintained in ATCC-formulated McCoy's 5a medium, supplemented with 10% (v/v) FBS and 1% PS. Caco-2/BBe cells were grown in DMEM supplemented with 10% (v/v) FBS and 1% PS (v/v). Human colon cancer stem cells (HC-CSC) were maintained in complete growth media with serum and antibiotics (Cat #M36112-39S) from Celprogen Inc. (Torrance, CA, USA).
The […] (MTT) assay was used to study the effects of M13 on the viability of four 2D-cultured human intestinal cell lines (HIEC-6, HCT-116, Caco-2/BBe, and HC-CSC).
Next, the anti-cancer activities of free M13, NL, and M13-NL were compared against Caco-2/BBe cells.
Background: Tetrazolium dyes change colour on reduction, which living cells bring about.

Data set [4] is described as follows: Chemical stability at various pH / in acidic PBS (HPLC). It is filed as physicochemical.
Text: as §1, §2

For data set [5], the system named is lung cancer cells (H-1299). To be noted: cited from earlier work.

Molecules are shown by their SMILES. Where two headings read alike, the source gives them in different places.

Sequence of SPHK2 (Q9NRA0 whole entry): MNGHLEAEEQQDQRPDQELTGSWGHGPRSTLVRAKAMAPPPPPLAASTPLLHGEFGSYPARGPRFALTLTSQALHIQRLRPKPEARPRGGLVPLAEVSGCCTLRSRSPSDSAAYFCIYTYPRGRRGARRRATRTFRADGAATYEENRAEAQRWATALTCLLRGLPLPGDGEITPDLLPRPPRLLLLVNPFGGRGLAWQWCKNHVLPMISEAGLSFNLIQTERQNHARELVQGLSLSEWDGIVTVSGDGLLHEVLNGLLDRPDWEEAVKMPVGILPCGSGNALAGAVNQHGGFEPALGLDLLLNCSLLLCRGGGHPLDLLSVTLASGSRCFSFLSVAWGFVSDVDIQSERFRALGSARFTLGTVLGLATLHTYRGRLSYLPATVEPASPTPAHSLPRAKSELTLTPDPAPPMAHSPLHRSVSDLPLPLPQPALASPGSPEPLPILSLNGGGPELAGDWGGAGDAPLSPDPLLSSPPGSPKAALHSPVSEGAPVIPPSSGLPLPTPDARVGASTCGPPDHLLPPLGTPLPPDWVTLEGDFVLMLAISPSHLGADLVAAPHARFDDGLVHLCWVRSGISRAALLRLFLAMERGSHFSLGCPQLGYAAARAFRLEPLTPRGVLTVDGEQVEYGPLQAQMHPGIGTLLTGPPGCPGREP

A word on the EC50: it is the concentration at which the effect is half-maximal. What is called solubility (kinetic) is solubility judged after dilution from a stock solution rather than from solid. Usually inhibition stands for the drop in the measured response relative to a control, in per cent. Turning to `CCCCCC(CC(=O)CCc1ccc(O)c(OC)c1)SCC(NC(=O)CCC(N)C(=O)O)C(=O)NCC(=O)O` (stereo not shown) [M13, 5-glutathione-6-shogaol], the EC50 in the data set with SARS-CoV-2 (Severe acute respiratory syndrome coronavirus 2, Vero) was roughly 36 µM; in the data set with SARS-CoV-2, 35.8 µM. The toxicity result in data set [1] and in data set [2] was “low toxicity” in each case. In addition, the activity at 20 µM in the data set with NF-κB signaling pathway (M13 20 μM, TNF-α 10 ng/ml, 18 hours, read-out: RLU (% with TNFα)) came to 87.2 ± 8.29%. For the same compound, the activity at 50 µM with NF-κB signaling pathway (M13 50 μM, TNF-α 10 ng/ml, 18 hours, read-out: RLU (% with TNFα)) came out at 9.75 ± 2.78%. For the same compound, the activity at 100 µM with NF-κB signaling pathway (M13 100 μM, TNF-α 10 ng/ml, 18 hours, read-out: RLU (% with TNFα)) turned out to be 0.81 ± 0.22%. The IC50 in the data set with NF-κB signaling pathway (read-out: dose to reduce the NF-κB activation by 50%) is roughly 29 µM; in the data set with Caco-2/BBe cells (Homo sapiens, Caco-2, 24 h), 16.7 µM. In addition, the solubility (kinetic) in “Kinetic solubility” (Example 1) and in the data set “Kinetic solubility” (as printed in Example 6) was greater than 200 µM in each case. For the same compound, the pKa was determined as 3.24 in [3] (read-out: pKa1), 9.12 in data set [3] (read-out: pKa2) and 10.4 in [3] (read-out: pKa3). On SPHK2, the inhibition at 20 µM lay in the range of 30 to 45%. For the same compound, the “fold by which IC50 against HIEC-6 is higher” value in the data set on Caco-2/BBe cells (HIEC-6 vs Caco-2/BBe) turned out to be 6 fold. Also, the “relative content of M13 before and after incubation (HPLC)” value in data set [4] (37° C., 2 h, acidic PBS (pH=5.0 or 3.0)) was “consistent before and after incubation”. Further, the “stability at various pH levels” value in data set [4] (pH 2 to pH 10) is reported as “very stable”. For the same compound, in data set [5], the bioactivity entry is listed as “exhibited bioactivity”.
